“And” between values parts separate entries of the source, which are not always exact repeats. Identical values can stand only once. Counter-ions that a name gives are not always drawn.
What was measured:
[1] = Cell viability (MTT) assay on RBL-2H3 cells; type: cell-based, rat; conditions: rat, RBL-2H3 cells; for viability at 4 h, 2.5 µg/mL: RBL-2H3, 2.5 µg/mL; for viability at 4 h, 5 µg/mL: RBL-2H3, 5 µg/mL; for viability at 4 h, 10 µg/mL: RBL-2H3, 10 µg/mL; for viability at 4 h, 25 µg/mL: RBL-2H3, 25 µg/mL; for viability at 4 h, 50 µg/mL: RBL-2H3, 50 µg/mL; for viability at 4 h, 100 µg/mL: RBL-2H3, 100 µg/mL
Method: (§1) RBL-2H3 cells were obtained from the Japanese Collection of Research Bioresources (JCRB) cell bank with a cell number of JCRB0023. The cells were cultured in enriched media (MEM containing 10% FBS and 1% penicillin-streptomycin (10 000 U/mL)). Once the cells reaching passage 3 (P3) with 80% confluency and showing stable growth and morphology, the cells were used for the bioassays. Only cells from passage 3 (P3) to passage 5 (P5) were used for the bioassays’ studies.
(§2) The cell viability assay was conducted as reported by Shahari, et al.. RBL-2H3 cells were seeded in 96-well plates in 100 µL at the concentration of 5 × 10^5 /mL. […] The cells were incubated for 4 h. 10 µL of MTT (5 mg/mL in PBS buffer) was added to the mixture and was incubated for 4 h at 37 °C. Upon the appearance of purple formazan crystal, the media was removed and 100 µL of DMSO was added to the well plates to dissolve the crystal. After 10 min of shaking the well plates on a shaker, the absorbance was immediately measured using a microplate reader at 570 nm.

[2] = system: RBL-2H3 cell line; test: Cell viability (MTT) assay on RBL-2H3 cells; type: cell-based, rat; conditions: for Toxicity towards the cell (in words): RBL-2H3, all concentrations tested; for Concentration safe on the cell: RBL-2H3, maintaining approximately 70% cell viability
Method: as §1, §2

[3] = system: beta-hexosaminidase release from RBL-2H3; test: Inhibitory effect on beta-hexosaminidase release from RBL-2H3 (IgE/DNP-BSA); type: cell-based, rat
Method: The bioassay was conducted as reported by Abd Rani, et al.. In the concentration of 2 × 10^5 cells in 400 µL per well, RBL-2H3 cells were seeded and incubated for 2 h. After 2 h, the cells were sensitized with anti-DNP IgE at a concentration of 0.45 µg/mL in 100 µL per well. The cells were incubated overnight until 80% confluent. The cells were washed with 500 µL Siraganian buffer (119 mM of sodium chloride (NaCl), 5 mM of potassium chloride (KCl), 5.6 mM of glucose, 0.4 mM of magnesium chloride (MgCl2), 1 mM of calcium chloride (CaCl2), 25 mM of piperazine-N,N′-bis(2-ethanesulfonic acid) (PIPES), 40 mM of sodium hydroxide (NaOH), 0.1% BSA; pH 7.2) twice before were added with 160 µL of Siraganian buffer and incubated for 10 min. The cells were then treated with different concentrations of test samples in 20 µL. After 10 min of incubation, allergen, DNP-BSA at a concentration of 10 mg/mL were added to the cells. The cells were incubated for another 30 min. The supernatant (50 µL) was transferred into 96-well plates and was added immediately with 50 µL of the substrate ([…] p-nitrophenyl-N-acetyl-β-D-glucosaminide in 0.1 M citrate buffer, pH 4.5). The cells were further incubated for 1 h and the reaction was stopped using a 200 µL stop solution (0.1 M Na2CO3/NaHCO3, pH 10.0). The absorbance was measured using the microplate reader at 405 nm. The percentage of inhibition was measured using Equation (1). Control cell was assumed to have 100% beta-hexosaminidase release with allergen added without any treatment while the normal cell was assumed to have 0% beta-hexosaminidase release with cell without any allergen and treatment added to the well. The blank well consisted of the test sample. Ketotifen fumarate was used as a positive control. (1) Percentage inhibition % = (1− OD test sample−OD blank−OD normal/OD control−OD normal) × 100

[4] = molecular target: T1, Histamine H1 (human) membrane preparation, in CHO-K1 cells (Homo sapiens, UniProt P35367); test: Radioligand competition binding assay (3H-mepyramine); conditions: for Ki: read-out: Radioassay (Ki)
T1 construct: purchased Perkin Elmer (Waltham, MA, USA); host or cells: CHO-K1 cells (recombinant expression, membrane preparation)
T1 sequence (P35367 whole entry): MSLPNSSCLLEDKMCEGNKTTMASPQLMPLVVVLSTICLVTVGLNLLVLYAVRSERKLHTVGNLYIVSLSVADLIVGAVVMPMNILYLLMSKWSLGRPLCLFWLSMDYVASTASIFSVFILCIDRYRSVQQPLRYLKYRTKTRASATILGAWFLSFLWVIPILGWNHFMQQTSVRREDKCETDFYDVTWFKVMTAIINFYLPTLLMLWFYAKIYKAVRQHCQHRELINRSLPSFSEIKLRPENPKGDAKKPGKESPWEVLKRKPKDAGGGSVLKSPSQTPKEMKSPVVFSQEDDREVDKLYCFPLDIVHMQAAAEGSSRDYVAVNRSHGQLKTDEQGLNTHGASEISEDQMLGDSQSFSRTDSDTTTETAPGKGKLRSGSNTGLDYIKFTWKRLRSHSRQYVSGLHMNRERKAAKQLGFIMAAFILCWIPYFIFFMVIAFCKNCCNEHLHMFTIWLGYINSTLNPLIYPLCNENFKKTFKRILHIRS
Method: In determining the affinity of the ligands toward the receptor, competition radioligand binding was conducted. The assay was conducted by measuring the competition binding between a radioligand with a ligand. The concentration of the radioligand with the presence of the ligand and the receptor was determined by using a liquid scintillation counter. […] The Ki value which also known as the binding affinity of the ligand was determined using GraphPad Prism.
Pyrilamine (Mepyramine), [pyridinyl 5-3H], Membrane Target Systems: Histamine H1 (human) membrane preparation, in CHO-K1 cells, liquid scintillation cocktail (ULTIMA GOLD MV), pico pro vial, and glass fiber (GF) filter were obtained from Perkin Elmer (Waltham, MA, USA).
In preparation for bioassay analysis, 10 mg of test samples were dissolved in 1 mL of DMSO and were treated as the stock sample. […] The working test sample together with its stock sample were kept in 4 °C until further used.
The radioligand assay was conducted as reported by Strakhova and Esbenshade. […] The mixture was immediately added with 200 µL of histamine receptor membrane (5 µg protein/well). The mixture was incubated for an hour at room temperature while shaking on the shaker. After an hour incubation, the mixture was harvested on GF/B uni filter presoaked with 0.5% PEI for 3 min. The GF/B uni filter was rinsed a few times with a wash buffer before being dried for one and a half hours. Once the uni filter was dry, the punched filter was transferred to 4 mL pico pro vial and was soaked with 2 mL of liquid scintillation cocktail. The solution was vortexed for a few seconds before being quantified using the liquid scintillator. Ki value (nmol/L) was obtained by using Equation (3).

[5] = system: histamine release from RBL-2H3; test: Inhibitory effect on histamine release from RBL-2H3 (ELISA); type: cell-based; conditions: Rattus norvegicus, mean ± SEM, n = 3, read-out: Inhibitory activity towards histamine release
Method: The bioassay was conducted as reported by Shahari, et al. and Abd Rani, et al.. In 24-well plates, 2 × 10^5 of RBL-2H3 cells were seeded in 400 µL per well. The cells were sensitized with 0.45 µg/mL anti-DNP IgE in 100 µL after two hours of incubation. The cells were incubated overnight until reaching 80% confluency. The cells were washed twice with 500 µL of enriched media before being constituted with 320 µL enriched media. After 10 min of incubation, the cells were treated with 40 µL of different concentration of test compounds and was incubated for another 10 min. The cells were treated with 20 µL of allergen, DNP-BSA (10 mg/mL), and further being incubated for another 30 min. The supernatant obtained was transferred into a microcentrifuge tube, and centrifuged for 20 min at 1000× g at 8 °C. The supernatant was transferred to the Histamine ELISA kit and the histamine quantification was conducted based on the ELISA manufacturer protocol given. The percentage of inhibition was measured using Equation (2). The control cell was assumed to have 100% histamine release with allergen added without any treatment while blank well corresponded to 0% cytokine release. Ketotifen fumarate was used as a positive control. (2) Percentage inhibition % = (1− OD test sample−OD blank/OD control−OD blank) × 100

[6] = Rattus norvegicus, mean ± SEM, n = 3, read-out: Inhibitory activity towards beta-hexosaminidase release
[7] = pH 7.4, 1 h incubation, 3H-mepyramine

SMILES | viability at 4 h, 2.5 µg/mL [1] [%] | viability at 4 h, 5 µg/mL [1] [%] | viability at 4 h, 10 µg/mL [1] [%] | viability at 4 h, 25 µg/mL [1] [%] | viability at 4 h, 50 µg/mL [1] [%] | viability at 4 h, 100 µg/mL [1] [%] | Toxicity towards the cell (in words) [2] | inhibition at 10 µg/mL [3, 6] [%] | inhibition at 25 µg/mL [3, 6] [%] | inhibition at 50 µg/mL [3, 6] [%] | Concentration safe on the cell [2] | Inhibition of beta-hexosaminidase release (in words) [3] | inhibition at 2.5 µg/mL [3, 6] [%] | inhibition at 5 µg/mL [3, 6] [%] | inhibition at 2.5 µg/mL [5] [%] | inhibition at 5 µg/mL [5] [%] | Ki [4, 7] | inhibition at 10 µg/mL [5] [%] | inhibition at 25 µg/mL [5] [%] | further results
O=C(O[C@@H]1O[C@@H]2COC(=O)c3cc(O)c(O)c(O)c3-c3c(cc(O)c(O)c3O)C(=O)O[C@H]([C@H]1O)[C@@H]2O)c1cc(O)c(O)c(O)c1 [Corilagin (4), corilagin] | 87.1 ± 4.31 | 81.1 ± 14.8 | 93.7 ± 15.4 | 103 ± 12.1 | 104 ± 7.35 | 101 ± 7.2 | not toxic towards the cell | 2.43 ± 3.26 | 5.12 ± 2.09 | 6.68 ± 1.71 |  |  |  |  |  |  |  |  |  | Affinity towards the H1 receptor (in words) ([4]; competition radioligand assay): did not show any affinity towards the receptor; Radioassay (Ki) [4, 7]: Not converged
COC[C@@H]1Cc2cc(OC)c3c(c2[C@H](c2ccc(OC)c(OC)c2)[C@H]1COC)OCO3 [Hypophyllanthin (2), hypophyllanthin] | 93 ± 9.69 | 91 ± 10.4 | 114 ± 8.89 | 62.46 ± 0.56 | 40.6 ± 4.17 | 28.1 ± 4.13 |  |  |  |  | below 25 µg/mL | inhibited the release of beta-hexosaminidase | 32.3 ± 4.99 | 32.3 ± 4.51 | 11.9 ± 64.3 | 71.2 ± 34.7 | 0.04 nM |  |  | inhibition at 1.25 µg/mL ([3]; Rattus norvegicus, 1.25 µg/mL, mean ± SEM, n = 3, read-out: Inhibitory activity towards beta-hexosaminidase release): 23.9 ± 3.31%; inhibition at 1.25 µg/mL ([5]; 1.25 µg/mL): 16.4 ± 46.6%
CN1CCC(=C2c3ccccc3CC(=O)c3sccc32)CC1 [Ketotifen fumarate, reference compound] | 91.9 ± 6.16 | 90.1 ± 3.89 | 86.8 ± 6.47 | 87.4 ± 1.17 | 83.8 ± 4.1 | 28.9 ± 4.87 |  | 22.2 ± 0.75 | 27.4 ± 0.58 |  | below 50 µg/mL |  |  | 17.7 ± 1.05 |  | 3.9 ± 6.8 |  | 44.7 ± 23 | 58.7 ± 23.2 | 
COC[C@H](Cc1ccc(OC)c(OC)c1)[C@H](COC)Cc1cc(OC)c2c(c1)OCO2 [Niranthin (3), niranthin] | 104 ± 5.79 | 79.4 ± 8.96 | 96.5 ± 7.33 | 85.4 ± 11.6 | 96.63 ± 0.63 | 86.3 ± 12.4 | not toxic towards the cell | 29.3 ± 5.81 | 31.3 ± 7.43 | 32.1 ± 7.27 |  | inhibited the release of beta-hexosaminidase |  |  |  | 34.7 ± 12.2 | 0.44 nM and 0.444 nM | 59 ± 22.2 | 41.2 ± 31.2 | 
COC[C@@H](Cc1ccc(OC)c(OC)c1)[C@@H](COC)Cc1ccc(OC)c(OC)c1 [Phyllanthin (1), phyllanthin] | 92 ± 1.13 | 76.6 ± 3.77 | 84.3 ± 6.83 | 82.1 ± 4.03 | 74.2 ± 7.99 | 53.5 ± 0.65 |  | 38.4 ± 8.72 |  |  | below 50 µg/mL | inhibited the release of beta-hexosaminidase | 26.4 ± 3.18 | 37.9 ± 6.51 | -3.05 ± 7.93 | 55.8 ± 19.3 |  | -11.6 ± 70.8 |  | 

Source: paper PMC7865555, “Mechanistic Studies of the Antiallergic Activity of Phyllanthus amarus Schum. & Thonn. and Its Compounds” (Molecules, 2021)
